Test results from US11273217B2, “Cancer treatment composition combining anti-CD26 antibody and other anticancer agent” (Y's AC Co., Ltd., priority 2015, dated 2022).

Legend:
[1] = test system: JMN cells; assay: In vivo JMN cell growth in SCID mice (tumor weight); settings: YS110 10 mg/kg, intraperitoneal
[2] = test system: HCC827 cells; assay: In vivo growth of CD26-positive lung cancer cell line HCC827 in SCID mice (tumor weight); settings: days 1 and 4, day 7
Method: HCC827 cells (1.8×10^5 cells/animal) were subcutaneously transplanted to the backs of female SCID mice. The day of transplantation was defined as day 0. At day 1, YS110 (10 mg/kg) alone, cisplatin (0.5 mg/kg)+pemetrexed (50 mg/kg), or YS110 (10 mg/kg)+cisplatin (0.5 mg/kg)+pemetrexed (50 mg/kg) was intraperitoneally administered to the mice. At day 4, the same amount of the same drug was administered by the same method as in day 1 (n=6). At day 7, their tumors were excised, and the tumor weights were measured. Significant difference was tested by two-tailed t-test (vs Cont).
HCC827 cells (0.9×10^5 cells/animal) were subcutaneously transplanted to the backs of female SCID mice. The day of transplantation was defined as day 0. YS110 (10 mg/kg, intraperitoneal administration), gefitinib (100 mg/kg, oral administration), or YS110 (10 mg/kg, intraperitoneal administration)+gefitinib (100 mg/kg, oral administration) was administered to the mice twice (days 1 and 4). At day 7, their tumors were excised, and the tumor weights were measured. Significant difference was tested by two-tailed t-test (vs Cont).

YS110: humanized anti-CD26 antibody designed based on anti-CD26 mouse antibody 14D10; SEQ ID NO: 17 and 18
effect of YS110 on the in vivo tumor growth inhibitory effect of cisplatin ([1]; cisplatin 0.5 mg/kg, days 1 and 4, tumor weight day 7): potentiated
effect of YS110 on the in vivo tumor growth inhibitory effect of cisplatin-pemetrexed ([1]; cisplatin 0.5 mg/kg, pemetrexed 50 mg/kg, days 1 and 4, tumor weight day 7): potentiated
inhibitory effect (tumor weight) ([1]; gemcitabine 10 mg/kg, days 2 and 4, day 7): 34%
effect of YS110 on the in vivo tumor growth inhibitory effect of pemetrexed ([1]; pemetrexed 50 mg/kg, days 1 and 4, tumor weight day 7): potentiated
effect of YS110 on the effect of gefitinib (tumor weight) ([2]; YS110 10 mg/kg intraperitoneal, gefitinib 100 mg/kg oral): potentiated
effect of YS110 on the effect of cisplatin-pemetrexed (tumor weight) ([2]; YS110 10 mg/kg, cisplatin 0.5 mg/kg, pemetrexed 50 mg/kg, intraperitoneal): potentiated
